Starred links: 1 amine or outer side, 2 acyl side, 3 side chain; linkers in the order of their positions; H or OH if unused. Non-standard residues stand in square brackets, D forms with d. Residues, ends and D or L forms follow the SMILES beside them. Groups on a side chain read outwards from the residue. *: point of attachment. C20 diacid = O=C(O)CCCCCCCCCCCCCCCCCCC(=O)*; C18 diacid = O=C(O)CCCCCCCCCCCCCCCCC(=O)*; γGlu = O=C(O)[C@H](CCC(=O)[*:2])N[*:1]; αMeF = C[C@](N)(Cc1ccccc1)C(=O)O; AEEA = NCCOCCOCC(=O)O; Aib = CC(C)(N)C(=O)O
What was measured:
[1] = target: human GLP-1 receptor (hGLP-1R) (Homo sapiens, UniProt P43220); test: cAMP production (HTRF) in CHO cells expressing hGLP-1R; format: cell-based; parameters: expressed in transfected cells; conditions: for EC50: Table 7, peptides modified at position 20, cAMP in CHO hGLP-1R cells, geometric mean, read-out: hGLP-1R EC50; for % Relative Potency Ratio: Table 7, % GLP-1R activity relative to GLP-1 / % GlucR activity relative to glucagon
Summary of the method: (§1)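 Read-out: HTRF cAMP (anti-cAMP cryptate donor, cAMP-d2 acceptor in conjugate/lysis buffer), converted to % Delta F and fitted by 4-parameter logistic for EC50. Cell densities were 1×10^5 cells/mL (hGLP-1R) or 2×10^5 cells/mL (hGCGR). Stimulation lasted 30 min at room temperature.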

[2] = target: human glucagon receptor (hGCGR) (Homo sapiens, UniProt P47871); test: cAMP production (HTRF) in CHO cells expressing hGCGR; format: cell-based; parameters: expressed in transfected cells; conditions: Table 7, peptides modified at position 20; cAMP in CHO hGCGR cells; geometric mean; read-out: hGluc-R EC50
Summary of the method: as §1

human GLP-1 receptor (hGLP-1R), sequence (P43220 24-463): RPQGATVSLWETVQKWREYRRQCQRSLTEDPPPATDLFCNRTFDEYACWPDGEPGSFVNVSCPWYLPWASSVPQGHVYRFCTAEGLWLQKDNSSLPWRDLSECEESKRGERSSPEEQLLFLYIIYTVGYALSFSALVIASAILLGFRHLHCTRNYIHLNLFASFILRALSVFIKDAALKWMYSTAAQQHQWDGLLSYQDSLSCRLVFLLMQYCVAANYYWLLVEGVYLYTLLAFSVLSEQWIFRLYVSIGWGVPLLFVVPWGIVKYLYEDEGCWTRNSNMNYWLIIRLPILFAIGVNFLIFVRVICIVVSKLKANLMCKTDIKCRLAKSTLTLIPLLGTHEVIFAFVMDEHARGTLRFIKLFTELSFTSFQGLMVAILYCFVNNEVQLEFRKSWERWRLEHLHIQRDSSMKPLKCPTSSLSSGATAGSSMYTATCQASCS
human glucagon receptor (hGCGR), sequence (P47871 26-477): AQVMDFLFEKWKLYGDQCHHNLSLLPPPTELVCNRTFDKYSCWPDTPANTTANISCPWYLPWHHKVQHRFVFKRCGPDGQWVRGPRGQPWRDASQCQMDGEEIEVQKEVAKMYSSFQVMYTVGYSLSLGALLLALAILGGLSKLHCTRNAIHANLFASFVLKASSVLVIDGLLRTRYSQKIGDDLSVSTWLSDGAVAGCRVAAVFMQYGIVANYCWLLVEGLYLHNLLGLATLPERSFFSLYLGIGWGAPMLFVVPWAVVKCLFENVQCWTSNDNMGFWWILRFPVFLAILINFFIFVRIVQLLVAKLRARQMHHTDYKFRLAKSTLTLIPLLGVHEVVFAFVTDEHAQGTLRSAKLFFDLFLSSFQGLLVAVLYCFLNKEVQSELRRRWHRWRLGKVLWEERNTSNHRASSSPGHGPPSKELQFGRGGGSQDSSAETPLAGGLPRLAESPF

EC50 [1]	% Relative Potency Ratio [1]	EC50 [2]	Compound
0.264 nM	0.9	0.127 nM	CC[C@H](C)[C@H](NC(=O)[C@H](Cc1c[nH]c2ccccc12)NC(=O)[C@H](CCC(N)=O)NC(=O)[C@@H](NC(=O)[C@H](Cc1ccccc1)NC(=O)[C@H](CC(=O)O)NC(=O)[C@H](CCCCNC(=O)COCCOCCNC(=O)COCCOCCNC(=O)CC[C@H](NC(=O)CC[C@H](NC(=O)CCCCCCCCCCCCCCCCCCC(=O)O)C(=O)O)C(=O)O)NC(=O)[C@H](C)NC(=O)C(C)(C)NC(=O)[C@H](CCCNC(=N)N)NC(=O)[C@H](CO)NC(=O)[C@H](CC(=O)O)NC(=O)[C@H](CC(C)C)NC(=O)[C@](C)(Cc1ccccc1)NC(=O)[C@H](CCCCN)NC(=O)[C@H](CO)NC(=O)[C@@H](NC(=O)[C@H](CC(=O)O)NC(=O)[C@H](CO)NC(=O)[C@@H](NC(=O)[C@](C)(Cc1ccccc1)NC(=O)[C@H](CO)NC(=O)CNC(=O)[C@H](Cc1c[nH]cn1)NC(=O)C(C)(C)NC(=O)[C@@H](N)Cc1c[nH]cn1)[C@@H](C)O)C(C)C)C(C)C)C(=O)N[C@@H](C)C(=O)N[C@@H](CC(N)=O)C(=O)N[C@H](C(N)=O)[C@@H](C)O [Peptide 217] (H-H[Aib]HGS[αMeF]TSDVSK[αMeF]LDSR[Aib]AK([AEEA-AEEA-γGlu-γGlu-C20 diacid])DFVQWIANT-NH2)
0.139 nM	6.0	0.423 nM	CC[C@H](C)[C@H](NC(=O)[C@H](Cc1c[nH]c2ccccc12)NC(=O)[C@H](CCC(N)=O)NC(=O)[C@@H](NC(=O)[C@H](Cc1ccccc1)NC(=O)[C@H](CC(=O)O)NC(=O)[C@H](CCCCNC(=O)COCCOCCNC(=O)COCCOCCNC(=O)CC[C@H](NC(=O)CC[C@H](NC(=O)CCCCCCCCCCCCCCCCCCC(=O)O)C(=O)O)C(=O)O)NC(=O)[C@H](C)NC(=O)[C@H](C)NC(=O)[C@H](CCCNC(=N)N)NC(=O)[C@H](CO)NC(=O)[C@H](CC(=O)O)NC(=O)[C@H](CC(C)C)NC(=O)[C@](C)(Cc1ccccc1)NC(=O)[C@H](CCCCN)NC(=O)[C@H](CO)NC(=O)[C@@H](NC(=O)[C@H](CC(=O)O)NC(=O)[C@H](CO)NC(=O)[C@@H](NC(=O)[C@](C)(Cc1ccccc1)NC(=O)[C@H](CO)NC(=O)CNC(=O)[C@H](Cc1c[nH]cn1)NC(=O)C(C)(C)NC(=O)[C@@H](N)Cc1c[nH]cn1)[C@@H](C)O)C(C)C)C(C)C)C(=O)N[C@@H](C)C(=O)N[C@@H](CC(N)=O)C(=O)N[C@H](C(=O)NCC(N)=O)[C@@H](C)O [Peptide 218] (H-H[Aib]HGS[αMeF]TSDVSK[αMeF]LDSRAAK([AEEA-AEEA-γGlu-γGlu-C20 diacid])DFVQWIANTG-NH2)
0.0945 nM	6.2	0.298 nM	CC[C@H](C)[C@H](NC(=O)[C@H](Cc1c[nH]c2ccccc12)NC(=O)[C@H](CCC(N)=O)NC(=O)[C@@H](NC(=O)[C@H](Cc1ccccc1)NC(=O)[C@H](CC(=O)O)NC(=O)[C@H](CCCCNC(=O)COCCOCCNC(=O)COCCOCCNC(=O)CC[C@H](NC(=O)CC[C@H](NC(=O)CCCCCCCCCCCCCCCCCCC(=O)O)C(=O)O)C(=O)O)NC(=O)[C@H](C)NC(=O)[C@H](C)NC(=O)[C@H](CCCNC(=N)N)NC(=O)[C@H](CO)NC(=O)[C@H](CC(=O)O)NC(=O)[C@H](CC(C)C)NC(=O)[C@](C)(Cc1ccccc1)NC(=O)[C@H](CCCCN)NC(=O)[C@H](CO)NC(=O)[C@@H](NC(=O)[C@H](CC(=O)O)NC(=O)[C@H](CO)NC(=O)[C@@H](NC(=O)[C@](C)(Cc1ccccc1)NC(=O)[C@H](CO)NC(=O)CNC(=O)[C@H](Cc1c[nH]cn1)NC(=O)C(C)(C)NC(=O)[C@@H](N)Cc1c[nH]cn1)[C@@H](C)O)C(C)C)C(C)C)C(=O)N[C@@H](C)C(=O)N[C@@H](CC(N)=O)C(=O)N[C@H](C(=O)NCC(=O)NCC(N)=O)[C@@H](C)O [Peptide 219] (H-H[Aib]HGS[αMeF]TSDVSK[αMeF]LDSRAAK([AEEA-AEEA-γGlu-γGlu-C20 diacid])DFVQWIANTGG-NH2; N-terminus assumed)
0.24 nM	3.3	0.405 nM	CC[C@H](C)[C@H](NC(=O)C(C)(C)NC(=O)[C@H](CCC(N)=O)NC(=O)[C@@H](NC(=O)[C@H](Cc1ccccc1)NC(=O)[C@H](CC(=O)O)NC(=O)[C@H](CCCCNC(=O)COCCOCCNC(=O)COCCOCCNC(=O)CC[C@H](NC(=O)CC[C@H](NC(=O)CCCCCCCCCCCCCCCCCCC(=O)O)C(=O)O)C(=O)O)NC(=O)[C@H](C)NC(=O)C(C)(C)NC(=O)[C@H](CCCNC(=N)N)NC(=O)[C@H](CO)NC(=O)[C@H](CC(=O)O)NC(=O)[C@H](CC(C)C)NC(=O)[C@](C)(Cc1ccccc1)NC(=O)[C@H](CCCCN)NC(=O)[C@H](CO)NC(=O)[C@@H](NC(=O)[C@H](CC(=O)O)NC(=O)[C@H](CO)NC(=O)[C@@H](NC(=O)[C@](C)(Cc1ccccc1)NC(=O)[C@H](CO)NC(=O)CNC(=O)[C@H](Cc1c[nH]cn1)NC(=O)C(C)(C)NC(=O)[C@@H](N)Cc1c[nH]cn1)[C@@H](C)O)C(C)C)C(C)C)C(=O)N[C@@H](C)C(=O)N[C@@H](CC(N)=O)C(=O)N[C@H](C(N)=O)[C@@H](C)O [Peptide 220] (H-H[Aib]HGS[αMeF]TSDVSK[αMeF]LDSR[Aib]AK([AEEA-AEEA-γGlu-γGlu-C20 diacid])DFVQ[Aib]IANT-NH2)
0.122 nM	2.0	0.123 nM	CC[C@H](C)[C@H](NC(=O)C(C)(C)NC(=O)[C@H](CCC(N)=O)NC(=O)[C@@H](NC(=O)[C@H](Cc1ccccc1)NC(=O)[C@H](CC(=O)O)NC(=O)[C@H](CCCCNC(=O)COCCOCCNC(=O)COCCOCCNC(=O)CC[C@H](NC(=O)CC[C@H](NC(=O)CCCCCCCCCCCCCCCCCCC(=O)O)C(=O)O)C(=O)O)NC(=O)[C@H](C)NC(=O)[C@H](C)NC(=O)[C@H](CCCNC(=N)N)NC(=O)[C@H](CO)NC(=O)[C@H](CC(=O)O)NC(=O)[C@H](CC(C)C)NC(=O)[C@](C)(Cc1ccccc1)NC(=O)[C@H](CCCCN)NC(=O)[C@H](CO)NC(=O)[C@@H](NC(=O)[C@H](CC(=O)O)NC(=O)[C@H](CO)NC(=O)[C@@H](NC(=O)[C@](C)(Cc1ccccc1)NC(=O)[C@H](CO)NC(=O)CNC(=O)[C@H](Cc1c[nH]cn1)NC(=O)C(C)(C)NC(=O)[C@@H](N)Cc1c[nH]cn1)[C@@H](C)O)C(C)C)C(C)C)C(=O)N[C@@H](C)C(=O)N[C@@H](CC(N)=O)C(=O)N[C@H](C(N)=O)[C@@H](C)O [Peptide 221] (H-H[Aib]HGS[αMeF]TSDVSK[αMeF]LDSRAAK([AEEA-AEEA-γGlu-γGlu-C20 diacid])DFVQ[Aib]IANT-NH2; N-terminus assumed)
0.151 nM	3.2	0.244 nM	CC[C@H](C)[C@H](NC(=O)[C@H](CO)NC(=O)[C@H](CCC(N)=O)NC(=O)[C@@H](NC(=O)[C@H](Cc1ccccc1)NC(=O)[C@H](CC(=O)O)NC(=O)[C@H](CCCCNC(=O)COCCOCCNC(=O)COCCOCCNC(=O)CC[C@H](NC(=O)CCCCCCCCCCCCCCCCC(=O)O)C(=O)O)NC(=O)[C@H](C)NC(=O)[C@H](C)NC(=O)[C@H](CCC(N)=O)NC(=O)[C@H](CO)NC(=O)[C@H](CC(=O)O)NC(=O)[C@H](CC(C)C)NC(=O)[C@](C)(Cc1ccccc1)NC(=O)[C@H](CCCCN)NC(=O)[C@H](CO)NC(=O)[C@@H](NC(=O)[C@H](CC(=O)O)NC(=O)[C@H](CO)NC(=O)[C@@H](NC(=O)[C@](C)(Cc1ccccc1)NC(=O)[C@H](CO)NC(=O)CNC(=O)[C@H](Cc1c[nH]cn1)NC(=O)C(C)(C)NC(=O)[C@@H](N)Cc1c[nH]cn1)[C@@H](C)O)C(C)C)C(C)C)C(=O)N[C@@H](C)C(=O)N[C@@H](CC(N)=O)C(=O)N[C@H](C(N)=O)[C@@H](C)O [Peptide 222] (H-H[Aib]HGS[αMeF]TSDVSK[αMeF]LDSQAAK([AEEA-AEEA-γGlu-C18 diacid])DFVQSIANT-NH2)

Source: patent US20250353891A1 (MEDIMMUNE LIMITED, priority 2022, published 2025)
